In data set [1] the test system is VZV. The experiment in a line: Yield of cell-free VZV from infected MRC5 cells, plaque assay on ARPE-19 cells. To be noted: for VZV yield relative to no treatment (NT): 25 μM fatty acid plus 10 μM αT, 6 h after infection, sonicated immediately; for VZV yield relative to no treatment (NT) / VZV yield, fold change relative to no treatment (NT): MOI 1:50, 72 h; for VZV yield, fold change relative to no treatment (NT): added 6 hpi. Type of data set: cell-based, varicella zoster virus. On the procedure:
For this test, MRC5 cells (passage 20-25) were seeded at a density of 300.000 cell/100 mm culture dish and grown in 15 ml of DMEM containing 10% fetal calf serum plus 2 mM GlutaMAX (GIBCO®, GlutaMAX™) at 35° C. A lipid mixture (LM-1, 1 ml/liter medium, Sigma Aldrich #L5146) was added to the cells either at the time of seeding or 1 day after seeding. Three days later, the culture medium was replaced with 10 ml growth medium containing 50 mM sucrose as a stabilizer. The cells were further incubated for 3 days and growth medium was replaced with fresh medium containing no sucrose. After cells reached confluence, they were infected with VZV by adding infected cells (1 infected cell/50 uninfected cells; infected cells were from a preparation frozen in a solution of 10% DMSO plus 90% fetal calf serum and stored in liquid nitrogen). At the time of infection, the cultures were re-fed with DMEM containing 10% fetal calf serum plus 2 mM glutamax. Arachidonic acid (AA)+alpha-tocopherol (αT) or DHA+αT were added at the indicated times. 72 hours after infection, cells were washed twice with PBS, and incubated in 10 ml of PBS containing 50 mM ammonium chloride for 50 minutes at 4° C. The cells were harvested and frozen in PSGC buffer (Harper et al., Arch Virol 143:1163-70, 1998) at −80° C. Infectious virus was subsequently quantified by plaque assay of sonicated cells on ARPE-19 cells (American Type Culture Collection). Results are set out in FIG. 3.
Briefly, in these repeat experiments, MRC5 cells were infected with VZV at an MOI=1:50. AA, DHA, and αT were added to the cells at 6 hpi as indicated. 72 hours after infection, the cells were harvested into PSGC buffer and frozen at −80° C. for later processing. After thawing, the cells were sonicated and the yield of cell free VZV quantified by standard plaque assay on ARPE-19 cells. Fold change relative to no treatment (NT) is shown. […] The fold-changes are the average of two independent infections.
In brief, MRC5 cells were infected with VZV at an MOI=1:50. Lipid mixture 1(LM-1) was added to the cells immediately after cell seeding. At 6 hours after infection, up to about 100 μM AA or […] was added to cells together with up to about 10 μM αT. 72 hours after infection, the cells were harvested into PSGC buffer and either frozen at −80° C. and sonicated later for the release of virus (frozen cells) or immediately sonicated after harvesting and supernatants containing the cell-free VZV were frozen at −80° C. (frozen sup.) prior to titration. Cell-free VZV yield was quantified by plaque assay on APRE-19 cells. Fold change relative to no treatment (NT) is shown. The numbers above the bars indicate the amount of virus obtained per ml in the corresponding treatment. The results are set out in FIG. 5.
Briefly, MRC5 cells were infected with VZV at an MOI=1:50. Six hours after infection cells were treated with indicated combinations of lipids plus 10 μM αT. Hexacosanoic acid (HSA) and octacosanoic acid (OSA) were dissolved in 20 mg/ml α-cyclodextin (Sigma-Aldrich) in PBS by sonication and added to a solution of 10 mg/ml fatty acid-free BSA (Sigma-Aldrich) in PBS (1:1, v/v) to give a stock concentration of 10 mM for each fatty acid. HSA, OSA, and DHA were used at 25 μM, and AA was used at 25 μM. Two sets of fatty acid concentrations was used for combination treatments: DHA, AA, and HSA was either added at concentrations of 25 μM, 100 μM, and 25 μM (high), or 10 μM, 50 μM, and 10 μM (low), respectively. 72 hours after infection, the cells were harvested into PSGC buffer, sonicated immediately and the yield of cell free VZV quantified by plaque assay on ARPE-19 cells. Fold change relative to no treatment (NT) is shown. The fold-changes are the average of two independent infections.
Briefly, MRC5 cells were grown in DMEM containing 10% fetal calf serum, 2 mM GlutaMAX) at 35° C. as described in the text. […]

Data set [2] relates to VZV. The data set is described as above. Type of data set: cell-based, varicella zoster virus. To be noted: for VZV yield relative to no treatment (NT): with 10 μM α-T, 6 h after infection, HSA and DHA 25 μM, AA 100 μM, MOI 1:100, 72 hours post infection; for VZV yield, factor of increase: MOI 1:250, 72 h.
A further data set deals with AD169 strain of HCMV. Type of data set: cell-based, human cytomegalovirus. To be noted: for HCMV yield, fold change relative to no treatment (NT): MRC5, 0.5 IU/cell, 96 h after infection. On the procedure: Cells were infected with the AD169 strain of HCMV at a multiplicity of 0.5 infectious units/cell, and immediately following a 2-hour adsorption period, cells were fed with medium (Dulbecco's Modified Eagle Medium, DMEM) containing 10% fetal calf serum plus various fatty acids, cholesterol and carbonyl scavenging compound. At 96 hours post infection, infectious virus in the medium was assayed by fluorescent focus assay using antibody to the HCMV IE1 protein.
Briefly, About 90% confluent MRC5 human fibroblasts were infected with HCMV at a multiplicity of 0.5 IU/cell. Two hours after infection, medium was replaced with fresh medium containing 10% fetal calf serum and either of oleic acid (OA, up to about 100 μM), linoliec acid (LA, up to about 100 μM), a-linolenic acid (LLA, up to about 100 μM), eicosapentaenoic acid (EPA, up to about 75 μM), or docosahexaenoic acid (DHA, up to about 50 μM). The experiment was also performed in the presence of either aminoguanidine (AG, up to about 250 μM) or cholesterol (chol., up to about 13 μM). Virus production at 96 hours after infection was determined by fluorescent focus assay in MRC-5 cells and shown as a fold change relative to no treatment (NT) which was 5×10^5 infectious units. The fold-changes are the average of two independent infections.
Briefly, about 90% confluent MRC5 fibroblasts were infected with HCMV at a multiplicity of 0.5 IU/cell. Two hours after infection, medium was replaced with fresh medium containing 10% fetal calf serum and α-tocopherol (α-T) or aminoguanidine (AG) at indicated concentrations. Virus production at 96 h after infection was determined by fluorescent focus assay in which MRC-5 cells and shown as a fold change relative to no treatment (NT). The fold-changes are the average of two independent infections. Results are set out in FIG. 2.
MRC5 fibroblasts were infected with the AD169 strain of HCMV at a multiplicity of 0.5 infectious units/cell in glutamine/GlutaMAX-free DMEM containing 10% dialyzed FCS. The dialyzed serum was used to completely eliminate the glutamine in the culture medium. The cells received either 2 mM GlutaMAX, which served as a control, or 7 mM α-kg. At 96 hours post infection, infectious virus in the medium was assayed by fluorescent focus assay using antibody to the HCMV IE1 protein.

The subject of another data set is MRC5 cells. The experiment in a line: Cytotoxicity evident upon visual inspection of treated infected cells. Type of data set: cell-based, human. The conditions noted are these: 100 μM fatty acid; VZV-infected MRC5 cells.
The mark [3] stands for this setting: additive alone in medium from 2 h after infection, OA, LA, LLA up to about 100 μM, EPA 75 μM, DHA 50 μM, AG 250 μM, chol. 13 μM.
The mark [4] stands for this setting: 25 μM fatty acid, absence of αT.
Setting [5] is: fatty acid together with aminoguanidine (up to about 250 μM).

Like-named read-outs stand apart in the source and are kept apart here.

For `CCCCCCCCCCCCCCCCCCCCCCCCCC(=O)O` [HSA, hexacosanoic acid], the “VZV yield relative to no treatment (NT)” value with VZV [1] is “improved virus yields in comparison to no treatment”; in the data set with VZV [2], “elevated the yield of VZV”.
As to `CC(C)CCC[C@@H](C)[C@H]1CC[C@H]2[C@@H]3CC=C4C[C@@H](O)CC[C@]4(C)[C@H]3CC[C@]12C` [cholesterol], the “HCMV yield, fold change relative to no treatment (NT)” value with AD169 strain of HCMV (setting [3]) is reported as “no effect on HCMV yield”. The “HCMV yield, effect on the enhancing effects of fatty acids” value in the data set with AD169 strain of HCMV (cholesterol (up to about 13 μM) together with fatty acids, MRC5, 96 h after infection) was “did not improve, and in some cases inhibited”. Besides, the “VZV yield, factor relative to no treatment” value with VZV [2] (13 μM cholesterol, MOI 1:100, 72 hr after infection) is given as “increased the yield of VZV by a factor of about two”.
Regarding `Cc1c(C)c2c(c(C)c1O)CC[C@@](C)(CCC[C@H](C)CCC[C@H](C)CCCC(C)C)O2` [alpha-tocopherol], the “HCMV production relative to no treatment (NT)” value in the data set with AD169 strain of HCMV (Example 2, FIG. 2, scavenging compound alone from 2 h after infection, MRC5, 96 h) is listed as “enhances the production of HCMV”.
As to `N=C(N)NN` [aminoguanidine], in the data set with AD169 strain of HCMV (setting [3]), the “HCMV yield, fold change relative to no treatment (NT)” value is given as “about 2.6 fold”.
Consider `CC/C=C\C/C=C\C/C=C\C/C=C\C/C=C\C/C=C\CCC(=O)O` [DHA, docosahexaenoic acid], for which the “HCMV yield, fold change relative to no treatment (NT)” value with AD169 strain of HCMV (setting [3]) came out at 4.6 fold. For the same molecule, the “VZV yield, fold change relative to no treatment (NT)” value in the data set on VZV [1] (setting [4]) is “about 1.5 fold”. Moreover, the “Cytotoxicity / cellular toxicity” value in the data set on MRC5 cells is listed as “toxic in the absence or presence of αT”.
Regarding `CCCCCCCC/C=C\CCCCCCCC(=O)O` [OA, oleic acid], the results for the “HCMV yield, fold change relative to no treatment (NT)” value in the data set on AD169 strain of HCMV (setting [3]) and with AD169 strain of HCMV (setting [5]) were “reduced the yield of HCMV” and “reduced”, respectively. Besides, in the data set with VZV [1] (100 μM), the “VZV production, factor of reduction” value worked out at 2. The “Cytotoxicity / cellular toxicity” value in the data set with MRC5 cells was “without causing observable cellular toxicity”.
As for `CC/C=C\C/C=C\C/C=C\CCCCCCCC(=O)O` [LLA, α-linolenic acid], the entries for the “HCMV yield, fold change relative to no treatment (NT)” value with AD169 strain of HCMV (setting [3]) and in the data set on AD169 strain of HCMV (setting [5]) were “about 1.2 fold” and “reduced”, respectively.
As for `CC/C=C\C/C=C\C/C=C\C/C=C\C/C=C\CCCC(=O)O` [EPA, eicosapentaenoic acid], the “HCMV yield, fold change relative to no treatment (NT)” value in the data set with AD169 strain of HCMV (setting [3]) is recorded as 2.5 fold.
As to `CCCCC/C=C\C/C=C\CCCCCCCC(=O)O` [LA, linoleic acid], the “HCMV yield, fold change relative to no treatment (NT)” value with AD169 strain of HCMV (setting [3]) is “had little effect on the yield”; in the data set on AD169 strain of HCMV (setting [5]) it was “reduced”.
In the case of `CCCCCCCCCCCCCCCCCCCCCCCCCCCC(=O)O` [OSA, octacosanoic acid], the “VZV yield relative to no treatment (NT)” value in the data set on VZV [1] was “improved virus yields in comparison to no treatment”.
On to `COC(=O)CCC(=O)C(=O)OC` [α-kg, dimethyl-α-ketoglutarate], for which the “Production of cell-free HCMV, fold increase relative to 2 mM GlutaMAX control” value in the data set with AD169 strain of HCMV (7 mM α-kg replacing glutamine, glutamine/GlutaMAX-free DMEM, 10% dialyzed FCS, 0.5 infectious units/cell, 96 hours post infection) worked out at 4.3 fold. In addition, the “VZV replication / titers” value in the data set on VZV [2] (1 mM α-kg in the absence of GlutaMAX, MOI 1:100, 72 h) is reported as “unable to support virus replication”; in the data set with VZV [2] (2.5 mM α-kg in the absence of GlutaMAX, MOI 1:100, 72 h), “unable to support virus replication”. The “VZV yield, fold increase relative to GlutaMAX (NT; 2 mM)” value with VZV [2] (7 mM α-kg alone, glutamine/GlutaMAX-free medium, MOI 1:50, added 6 hpi, 72 h) is reported as 3.4 fold. The “VZV replication, fold enhancement compared to the addition of 2 mM GlutaMAX” value with VZV [2] (7 mM α-kg in the absence of GlutaMAX, MOI 1:100, 72 h) is recorded as 2.8 fold. In addition, the “VZV yield, fold increase” value with VZV [2] (7 mM α-kg in the presence of 2 mM GlutaMAX, MOI 1:100, added 6 h, 72 h) is “about 2.1 fold”. Also, in the data set with VZV [2] (MRC5, MOI 1:100, 72 h), the “Concentration required to optimally support the replication of VZV” value is listed as above 2.5 mM. The figures for the “VZV yield, factor of increase” value in the data set on VZV [2] (glutamine-free medium supplemented with dialyzed serum (10% dialyzed FCS)) and in the data set on VZV [2] (glutamine/GlutaMAX-free medium containing normal serum (10% FCS)) were around 9.7 and around 3.7 fold, respectively.
On to `CCCCC/C=C\C/C=C\C/C=C\C/C=C\CCCC(=O)O` [AA, arachidonic acid], for which the “VZV yield, fold change relative to no treatment (NT)” value in the data set with VZV [1] (25 μM fatty acid in the presence of αT) is “increased the virus yield”; with VZV [1] (setting [4]), “enhanced the yield of virus”; in the data set on VZV [1] (100 μM fatty acid, absence of αT), “inhibited virus production”; in the data set on VZV [2] (100 μM fatty acid in the presence of αT, added 6 hpi, MOI 1:50, 72 h) it was 5 fold. For the same molecule, the “VZV yield relative to no treatment (NT)” value in the data set with VZV [2] is given as “elevated the yield of VZV”.

Values taken from patent publication US20210380952A1, “Method to Produce Virus in Cultured Cells Supplemented With Alpha-Ketoglutarate” (THE TRUSTEES OF PRINCETON UNIVERSITY, priority 2012, published 2021).
